Several values for one entry are separate records, joined by “and”; a condition that tells them apart may be missing. Identical values can stand only once. Entries after “also recorded” stand apart in the source; their conditions may differ. Like-named read-outs stand apart in the source and are kept apart here.

For data set [1] the following is noted: rat, in vivo; for AUC (area under the curve) / Cmax (concentration maximum) / T1/2 (elimination half-life) / ratio AUC (4-oxo-9-cis RA)/AUC (9 cis RA): 9 mg; for conversion of 9-cis RA to its metabolite (4-oxo-9-cis RA) / ratio AUC (4-oxo-9-cis RA)/AUC (9 cis RA): male, Sprague-Dawley.
Data set [2] concerns human neuroblastoma SH-SY5Y xenografts. Briefly: Neuroblastoma SH-SY5Y xenograft tumour growth in nude rats. In kind it is in vivo. The procedure:
This increases the importance of finding new therapeutic drugs. […] Two animals were sacrificed at each time point. […] The true tumour weight was recorded at autopsy. […] All treatments were administered with a gastric feeding tube.

For data set [3] the test system is unchanged. The arrangement: method as in Ponthan et al, 2001. The conditions noted are these: nude rats, 9-cis RA 5 mg day-1 (once daily); ref Ponthan et al, 2001; cited from earlier work.
A short description of data set [4]: Pharmacokinetic study of 9-cis RA in rat (plasma HPLC, one-compartment model).

Consider `CC1=C(/C=C/C(C)=C\C=C\C(C)=C\C(=O)O)C(C)(C)CCC1=O` [4-oxo-9-cis RA, 4-oxo-9-cis retinoic acid], for which the “formed amount (AUC) of 4-oxo-9-cis RA after i.v. versus p.o. administration” value in data set [1] came to 2 fold. In data set [1] (iv), the “Tmax (time of Cmax)” value came out at 188 min, the “AUC (area under the curve)” value was determined as 6295 ng/mL/h, the “Cmax (concentration maximum)” value is 738 ng/mL and the “T1/2 (elimination half-life)” value amounted to 129 min. Further, in data set [1] (po), the “Tmax (time of Cmax)” value worked out at 275 min, the “AUC (area under the curve)” value turned out to be 3563 ng/mL/h, the “Cmax (concentration maximum)” value came out at 441 ng/mL and the “T1/2 (elimination half-life)” value turned out to be 126 min.
With `CC1=C(/C=C/C(C)=C\C=C\C(C)=C\C(=O)O)C(C)(C)CCC1` [9-cis RA, 9-cis retinoic acid], the “tumour weight, trend” value in data set [2] (2 x 2.5 mg day-1 treated group) was “tendency towards a reduction in tumour weights”. In addition, the “tumour weight at sacrifice, median (and range)” value is 2.79 g and 1.49 to 9.98 g in data set [2] (9-cis RA 2 mg day-1 (RA 1), n 10 tumours, 12 days); 1.84 g and 0.92 to 2.95 g in data set [2] (9-cis RA 2 x 2.5 mg (RA 2), n 3 tumours, 10 days). Moreover, the “effect on tumour growth” value in data set [2] (9-cis RA 2 mg day-1 p.o.) is listed as “no significant effect on tumour growth; also recorded: tumour growth-inhibiting effect was not significant”; in data set [2] (9-cis RA 2.5 mg p.o. twice daily) it was “only limited effect on tumour growth; also recorded: limited but statisti- cally significant reduction in tumour growth”; in data set [3], “significant reduction in tumour growth”. Moreover, the “tumour volume compared to control tumours” value in data set [2] (9-cis RA 2 mg day-1 p.o., 12 days) was “no significant reduction in tumour volume”. Besides, the “tumour volume compared to corresponding controls” value in data set [2] (9-cis RA 2.5 mg p.o. twice daily, day 8) is “not at day 8”. Further, the “tumour weight compared to untreated control tumours” value in data set [2] (regardless of treatment schedule (2 mg day-1 or 2.5 mg twice daily), after 10-12 days of therapy) is recorded as “no significant reduction in tumour weight”. Further, the “conversion of 9-cis RA to its metabolite (4-oxo-9-cis RA)” value in data set [1] (iv) is listed as “about 8%”; in data set [1] (po) it was 42%. The figures for the “ratio AUC (4-oxo-9-cis RA)/AUC (9 cis RA)” value in data set [1] (iv) and in data set [1] (po) were 0.08 and 0.42, respectively. Also, the “elimination half-life (t1/2)” value in data set [4] (9 mg 9-cis RA, p.o. and i.v. taken together) fell in the range of 26 to 43 min. The AUC (area under the curve) in data set [4] (intravenous administration, 9 mg 9-cis RA) stood at 80100 ng·h/mL; in data set [4] (oral administration, 9 mg 9-cis RA), 8550 ng·h/mL. The Cmax stood at 120000 ng/mL in data set [4] (male, Sprague-Dawley, plasma, iv, 9 mg) and 3000 ng/mL in data set [4] (male, Sprague-Dawley, plasma, po, 9 mg). Moreover, the half-life in data set [4] (male, Sprague-Dawley, plasma, iv, 9 mg, T1/2 (elimination half-life), intravenous administration, 9 mg 9-cis RA) is 26.4 min; in data set [4] (male, Sprague-Dawley, plasma, other: p.o. and i.v. taken together, 9 mg, elimination half-life (t1/2), 9 mg 9-cis RA, p.o. and i.v. taken together), 35 min; in data set [4] (male, Sprague-Dawley, plasma, po, 9 mg, T1/2 (elimination half-life), oral administration, 9 mg 9-cis RA) it was 42.6 min. The molecule also gave a bioavailability in data set [4] (male, Sprague-Dawley, plasma, oral, 9 mg) of 11%.

Broadly, the Cmax is the peak of the concentration-time curve. In general, half-life refers to the time in which the quantity being followed falls by half. Higher therefore signals slow loss. As a reminder, the bioavailability is the share of a dose that reaches the circulation, judged against a reference dose that is usually intravenous. The low end stands for little systemic uptake, the high end for much systemic uptake.

The values above are taken from article PMC2364024, “Bioavailability and dose-dependent anti-tumour effects of 9-cis retinoic acid on human neuroblastoma xenografts in rat” (British Journal of Cancer, 2001).
